Test results: PMC5218480 (PLoS ONE, 2017)

System: MV-4-11 cells
Experiment: Gene expression microarray analysis (Affymetrix PrimeView) and GSEA
Type: cell-based, human
Design: RFU PODN (11730768_x_at) / Fold change /veh PODN (11730768_x_at) / RFU LINC00158 (11744669_a_at) / Fold change /veh LINC00158 (11744669_a_at) / RFU DUSP10 (11751237_a_at) / Fold change /veh DUSP10 (11751237_a_at) / RFU ID3 (11757404_x_at) / Fold change /veh ID3 (11757404_x_at) / RFU PLEKHG5 (11737974_s_at) / Fold change /veh PLEKHG5 (11737974_s_at) / RFU LRRC4B (11730491_at) / Fold change /veh LRRC4B (11730491_at) / RFU GIMAP4 (11747438_a_at) / Fold change /veh GIMAP4 (11747438_a_at) / RFU KRT8 (11758183_x_at) / Fold change /veh KRT8 (11758183_x_at) / RFU CNN1 (11734310_a_at) / Fold change /veh CNN1 (11734310_a_at) / RFU VPS37D (11726825_at) / Fold change /veh VPS37D (11726825_at) / RFU C10orf10 (11716522_x_at) / Fold change /veh C10orf10 (11716522_x_at) / RFU KIR2DL2 /// KIR2DL4 /// KIR2DL5A /// KIR2DL5B /// KIR2DS1 /// KIR2DS2 /// KIR2DS3 /// KIR2DS4 /// KIR3DL3 /// KIR3DL3 /// KIR3DS1 (11738374_at) / Fold change /veh KIR2DL2 /// KIR2DL4 /// KIR2DL5A /// KIR2DL5B /// KIR2DS1 /// KIR2DS2 /// KIR2DS3 /// KIR2DS4 /// KIR3DL3 /// KIR3DL3 /// KIR3DS1 (11738374_at) / RFU C1QL1 (11718748_at) / Fold change /veh C1QL1 (11718748_at) / RFU TMPRSS4 (11747572_a_at) / Fold change /veh TMPRSS4 (11747572_a_at) / RFU HAMP (11756126_x_at) / Fold change /veh HAMP (11756126_x_at) / RFU RNFT2 (11725882_a_at) / Fold change /veh RNFT2 (11725882_a_at) / RFU NR4A2 (11747474_a_at) / Fold change /veh NR4A2 (11747474_a_at) / RFU ABCC12 (11746883_a_at) / Fold change /veh ABCC12 (11746883_a_at) / RFU TMEM136 (11760407_x_at) / Fold change /veh TMEM136 (11760407_x_at) / RFU CLDN22 /// WWC2 (11732394_at) / Fold change /veh CLDN22 /// WWC2 (11732394_at) / RFU HLA-DPB1 (11760878_x_at) / Fold change /veh HLA-DPB1 (11760878_x_at) / RFU SPINT1 (11716480_a_at) / Fold change /veh SPINT1 (11716480_a_at) / RFU GAP43 (11754022_s_at) / Fold change /veh GAP43 (11754022_s_at) / RFU A4GNT (11735810_at) / Fold change /veh A4GNT (11735810_at) / RFU PRB3 (11715151_x_at) / Fold change /veh PRB3 (11715151_x_at) / RFU TUBB4B (11761932_at) / Fold change /veh TUBB4B (11761932_at) / RFU CAPN14 (11732068_a_at) / Fold change /veh CAPN14 (11732068_a_at) / RFU TMCC2 (11721928_a_at) / Fold change /veh TMCC2 (11721928_a_at) / RFU IRGQ (11745062_a_at) / Fold change /veh IRGQ (11745062_a_at) / RFU FAM174B (11720279_a_at) / Fold change /veh FAM174B (11720279_a_at) / RFU TMPRSS4 (11748680_a_at) / Fold change /veh TMPRSS4 (11748680_a_at) / RFU FAM212B (11763350_a_at) / Fold change /veh FAM212B (11763350_a_at) / RFU PLEKHG5 (11743358_a_at) / Fold change /veh PLEKHG5 (11743358_a_at) / RFU ZSCAN30 (11745921_a_at) / Fold change /veh ZSCAN30 (11745921_a_at) / RFU CMKLR1 (11741424_a_at) / Fold change /veh CMKLR1 (11741424_a_at) / RFU LOC101060620 /// MAPK8IP1 (11723275_at) / Fold change /veh LOC101060620 /// MAPK8IP1 (11723275_at) / RFU SPTSSB (11747773_x_at) / Fold change /veh SPTSSB (11747773_x_at) / RFU PRSS12 (11739890_at) / Fold change /veh PRSS12 (11739890_at) / RFU BIN1 (11741810_x_at) / Fold change /veh BIN1 (11741810_x_at) / RFU WNT11 (11732464_a_at) / Fold change /veh WNT11 (11732464_a_at) / RFU C10orf10 (11716521_a_at) / Fold change /veh C10orf10 (11716521_a_at) / RFU C5orf56 (11738089_at) / Fold change /veh C5orf56 (11738089_at) / RFU CYB561 (11721691_x_at) / Fold change /veh CYB561 (11721691_x_at) / RFU ANKRD19P (11752326_a_at) / Fold change /veh ANKRD19P (11752326_a_at) / RFU OR2T12 /// OR2T33 /// OR2T8 (11738714_s_at) / Fold change /veh OR2T12 /// OR2T33 /// OR2T8 (11738714_s_at) / RFU VCAN (11748164_a_at) / Fold change /veh VCAN (11748164_a_at) / RFU JSRP1 (11732532_at) / Fold change /veh JSRP1 (11732532_at) / RFU KRTAP10-11 (11738290_x_at) / Fold change /veh KRTAP10-11 (11738290_x_at) / RFU MYO3A (11730013_a_at) / Fold change /veh MYO3A (11730013_a_at) / RFU EBF3 (11725865_a_at) / Fold change /veh EBF3 (11725865_a_at) / RFU CAMK2N1 (11719241_x_at) / Fold change /veh CAMK2N1 (11719241_x_at) / RFU C5orf56 (11738088_a_at) / Fold change /veh C5orf56 (11738088_a_at) / RFU OLFML3 (11715873_a_at) / Fold change /veh OLFML3 (11715873_a_at) / RFU LOC100653217 /// NTM (11731650_a_at) / Fold change /veh LOC100653217 /// NTM (11731650_a_at) / RFU MAPK11 (11762145_a_at) / Fold change /veh MAPK11 (11762145_a_at) / RFU FIZ1 (11724087_x_at) / Fold change /veh FIZ1 (11724087_x_at) / RFU OASL (11726364_x_at) / Fold change /veh OASL (11726364_x_at) / RFU SOX15 (11748057_x_at) / Fold change /veh SOX15 (11748057_x_at) / RFU CD79A (11719716_a_at) / Fold change /veh CD79A (11719716_a_at) / RFU HIST1H1D (11736915_at) / Fold change /veh HIST1H1D (11736915_at) / RFU CASKIN2 (11723855_a_at) / Fold change /veh CASKIN2 (11723855_a_at) / RFU LOC730098 (11760151_x_at) / Fold change /veh LOC730098 (11760151_x_at) / RFU OR4N2 (11742367_at) / Fold change /veh OR4N2 (11742367_at) / RFU PRRT2 (11749266_a_at) / Fold change /veh PRRT2 (11749266_a_at) / RFU SNX32 (11753110_a_at) / Fold change /veh SNX32 (11753110_a_at) / RFU CDHR5 (11726645_a_at) / Fold change /veh CDHR5 (11726645_a_at) / RFU RCAN1 (11760418_a_at) / Fold change /veh RCAN1 (11760418_a_at) / RFU FAM167A (11723789_a_at) / Fold change /veh FAM167A (11723789_a_at) / RFU FAM26E (11764081_at) / Fold change /veh FAM26E (11764081_at) / RFU ISYNA1 (11749810_s_at) / Fold change /veh ISYNA1 (11749810_s_at) / RFU ACY1 (11761880_at) / Fold change /veh ACY1 (11761880_at) / RFU 11764098_at / Fold change /veh 11764098_at / RFU SAMD14 (11745864_x_at) / Fold change /veh SAMD14 (11745864_x_at) / RFU NPB (11741838_a_at) / Fold change /veh NPB (11741838_a_at) / RFU TMPRSS6 (11731388_a_at) / Fold change /veh TMPRSS6 (11731388_a_at) / RFU KRTAP10-2 (11738614_at) / Fold change /veh KRTAP10-2 (11738614_at) / RFU ARHGAP8 /// PRR5-ARHGAP8 (11727945_x_at) / Fold change /veh ARHGAP8 /// PRR5-ARHGAP8 (11727945_x_at) / RFU KRTAP5-7 /// NADSYN1 (11734609_at) / Fold change /veh KRTAP5-7 /// NADSYN1 (11734609_at) / RFU RASL12 (11751679_a_at) / Fold change /veh RASL12 (11751679_a_at) / RFU CDKN2B (11736163_a_at) / Fold change /veh CDKN2B (11736163_a_at) / RFU PRF1 (11729649_at) / Fold change /veh PRF1 (11729649_at) / RFU, ZNF638 /// ZNF638-IT1 / Fold change vs veh, ZNF638 /// ZNF638-IT1 / RFU, PANK3 / Fold change vs veh, PANK3 / RFU, SH3YL1 / Fold change vs veh, SH3YL1 / RFU, ZEB2 / Fold change vs veh, ZEB2 / RFU, NRIP1 / Fold change vs veh, NRIP1 / RFU, PTTG1IP / Fold change vs veh, PTTG1IP / RFU, CAPN2 / Fold change vs veh, CAPN2 / RFU, MED14 / Fold change vs veh, MED14 / RFU, SNORA58 / Fold change vs veh, SNORA58 / RFU, C1orf63 / Fold change vs veh, C1orf63 / RFU, LRRFIP1 / Fold change vs veh, LRRFIP1 / RFU, NDUFAF7 / Fold change vs veh, NDUFAF7 / RFU, SLC12A2 / Fold change vs veh, SLC12A2 / RFU, IBTK / Fold change vs veh, IBTK / RFU, ESF1 / Fold change vs veh, ESF1 / Fold change vs veh, TMEM50B / RFU, TAOK1 / Fold change vs veh, TAOK1 / RFU, ACBD3 / Fold change vs veh, ACBD3 / RFU, TMA16 / Fold change vs veh, TMA16 / RFU, RWDD3 / Fold change vs veh, RWDD3 / RFU, BCAT1 / Fold change vs veh, BCAT1 / RFU, EDEM3 / Fold change vs veh, EDEM3 / RFU, TMEM33 / Fold change vs veh, TMEM33 / RFU, WDR75 / Fold change vs veh, WDR75 / RFU, AHCTF1 / Fold change vs veh, AHCTF1 / RFU, TFRC / Fold change vs veh, TFRC / RFU, ZDHHC17 / Fold change vs veh, ZDHHC17 / RFU, NOM1 / Fold change vs veh, NOM1 / RFU, ARL8B / Fold change vs veh, ARL8B / RFU, ZBTB11 / Fold change vs veh, ZBTB11 / RFU, TAMM41 / Fold change vs veh, TAMM41 / RFU, KIAA1704 /// LOC100996395 / Fold change vs veh, KIAA1704 /// LOC100996395 / RFU, ING1 / Fold change vs veh, ING1 / RFU, TRMT61B / Fold change vs veh, TRMT61B / RFU, FUBP3 / Fold change vs veh, FUBP3 / RFU, TP53 / Fold change vs veh, TP53 / RFU, TNKS2 / Fold change vs veh, TNKS2 / RFU, ZFP14 / Fold change vs veh, ZFP14 / RFU, ACTR2 / Fold change vs veh, ACTR2 / RFU, PPP3R1 / Fold change vs veh, PPP3R1 / RFU, PIK3R1 / Fold change vs veh, PIK3R1 / RFU, HNRNPA1 / Fold change vs veh, HNRNPA1 / RFU, RNF170 / Fold change vs veh, RNF170 / RFU, ZNF28 / Fold change vs veh, ZNF28 / RFU, RNGTT / Fold change vs veh, RNGTT / RFU, OGT / Fold change vs veh, OGT / RFU, BRD1 / Fold change vs veh, BRD1 / RFU, MARS / Fold change vs veh, MARS / RFU, ZNF655 / Fold change vs veh, ZNF655 / RFU, FAHD1 / Fold change vs veh, FAHD1 / RFU, BDP1 / Fold change vs veh, BDP1 / RFU, LRRCC1 / Fold change vs veh, LRRCC1 / RFU, ARID1A / Fold change vs veh, ARID1A / RFU, ZNF146 / Fold change vs veh, ZNF146 / RFU, ZNF330 / Fold change vs veh, ZNF330 / RFU, GPN3 / Fold change vs veh, GPN3 / RFU, C9orf123 / Fold change vs veh, C9orf123 / RFU, N4BP2L2 / Fold change vs veh, N4BP2L2 / RFU, ARFIP1 / Fold change vs veh, ARFIP1 / RFU, FAM179B / Fold change vs veh, FAM179B / RFU, BCL10 / Fold change vs veh, BCL10 / RFU, UHRF1BP1L / Fold change vs veh, UHRF1BP1L / RFU, BET1 / Fold change vs veh, BET1 / RFU, CNOT2 / Fold change vs veh, CNOT2 / RFU, ZNF268 / Fold change vs veh, ZNF268 / Fold change vs veh, ZNF507 / RFU, DGCR2 / Fold change vs veh, DGCR2 / RFU, WDSUB1 / Fold change vs veh, WDSUB1 / Fold change vs veh, HSP90B1 /// MIR3652 / RFU, ADSS / Fold change vs veh, ADSS / RFU, GK / Fold change vs veh, GK / RFU, ZNF148 / Fold change vs veh, ZNF148 / RFU, TAF9 / Fold change vs veh, TAF9 / RFU, SLC1A5 / Fold change vs veh, SLC1A5 / RFU, SLMO2 / Fold change vs veh, SLMO2 / RFU, ABCC4 / Fold change vs veh, ABCC4 / RFU, LOC101060439 /// RAP1B / Fold change vs veh, LOC101060439 /// RAP1B / RFU, RFX7 / Fold change vs veh, RFX7 / RFU, GTPBP10 / Fold change vs veh, GTPBP10 / RFU, CNEP1R1 / Fold change vs veh, CNEP1R1 / RFU, BIVM-ERCC5 /// ERCC5 / Fold change vs veh, BIVM-ERCC5 /// ERCC5 / RFU, ILF3 / Fold change vs veh, ILF3 / RFU 11762660_at / Fold change /veh 11762660_at / RFU VCAN (11757783_s_at) / Fold change /veh VCAN (11757783_s_at) / RFU DDX43 (11728927_at) / Fold change /veh DDX43 (11728927_at) / RFU KRT8 (11758188_x_at) / Fold change /veh KRT8 (11758188_x_at) / RFU NKD1 (11759106_at) / Fold change /veh NKD1 (11759106_at) / RFU SRD5A1 (11742802_a_at) / Fold change /veh SRD5A1 (11742802_a_at) / RFU TPSAB1 /// TPSB2 (11721975_s_at) / Fold change /veh TPSAB1 /// TPSB2 (11721975_s_at) / RFU GSTM3 (11746129_a_at) / Fold change /veh GSTM3 (11746129_a_at) / RFU IL23R (11737362_x_at) / Fold change /veh IL23R (11737362_x_at) / RFU TMEM51 (11727254_a_at) / Fold change /veh TMEM51 (11727254_a_at) / RFU PIWIL2 (11732686_x_at) / Fold change /veh PIWIL2 (11732686_x_at) / RFU ORM1 (11744905_x_at) / Fold change /veh ORM1 (11744905_x_at) / RFU CCDC152 (11743942_at) / Fold change /veh CCDC152 (11743942_at) / RFU ECM1 (11717891_a_at) / Fold change /veh ECM1 (11717891_a_at) / RFU IL23R (11748794_a_at) / Fold change /veh IL23R (11748794_a_at) / RFU TNFAIP8L3 (11732012_x_at) / Fold change /veh TNFAIP8L3 (11732012_x_at) / RFU MBOAT4 (11741988_at) / Fold change /veh MBOAT4 (11741988_at) / RFU 11764193_at / Fold change /veh 11764193_at / RFU TMEM53 (11763286_at) / Fold change /veh TMEM53 (11763286_at) / RFU MAGEB2 (11727129_at) / Fold change /veh MAGEB2 (11727129_at) / RFU TMEM200A (11744735_a_at) / Fold change /veh TMEM200A (11744735_a_at) / RFU CCDC152 (11751479_a_at) / Fold change /veh CCDC152 (11751479_a_at) / RFU FAM211A (11726209_a_at) / Fold change /veh FAM211A (11726209_a_at) / RFU RGS16 (11746705_a_at) / Fold change /veh RGS16 (11746705_a_at) / RFU VCAN (11755009_s_at) / Fold change /veh VCAN (11755009_s_at) / RFU RHOB (11743442_s_at) / Fold change /veh RHOB (11743442_s_at) / RFU RGS16 (11720943_a_at) / Fold change /veh RGS16 (11720943_a_at) / RFU RGS16 (11720944_at) / Fold change /veh RGS16 (11720944_at) / RFU, VPS4B / Fold change vs veh, VPS4B / RFU, CREB1 / Fold change vs veh, CREB1 / RFU, DNAJC13 / Fold change vs veh, DNAJC13 / RFU, GNAQ / Fold change vs veh, GNAQ / RFU, CDK5R1 / Fold change vs veh, CDK5R1 / RFU, ZRANB3 / Fold change vs veh, ZRANB3 / RFU, CUL4A / Fold change vs veh, CUL4A / RFU, CCNY / Fold change vs veh, CCNY / RFU, UFL1 / Fold change vs veh, UFL1 / RFU, COG3 / Fold change vs veh, COG3 / RFU, DIAPH2 / Fold change vs veh, DIAPH2 / RFU, SKA2 / Fold change vs veh, SKA2 / RFU, AFF3 / Fold change vs veh, AFF3 / RFU, LMF1 / Fold change vs veh, LMF1 / RFU, IPO11 / Fold change vs veh, IPO11 / RFU, DFFB / Fold change vs veh, DFFB / RFU, FOXP1 / Fold change vs veh, FOXP1 / RFU, CARD8 / Fold change vs veh, CARD8 / RFU, STRN3 / Fold change vs veh, STRN3 / RFU, ADK / Fold change vs veh, ADK / RFU, RASSF2 / Fold change vs veh, RASSF2 / RFU, WIPF1 / Fold change vs veh, WIPF1 / RFU, LARP1B / Fold change vs veh, LARP1B / RFU, RASA1 / Fold change vs veh, RASA1 / RFU, RB1 / Fold change vs veh, RB1 / RFU, PPFIA1 / Fold change vs veh, PPFIA1 / RFU, MAT2A / Fold change vs veh, MAT2A / RFU, CCT5 / Fold change vs veh, CCT5 / RFU, WDR92 / Fold change vs veh, WDR92 / RFU, CUX1 / Fold change vs veh, CUX1 / RFU, TTC7A / Fold change vs veh, TTC7A / RFU, TMEM135 / Fold change vs veh, TMEM135 / RFU, DEPTOR / Fold change vs veh, DEPTOR / RFU, CPM / Fold change vs veh, CPM / RFU, DNAJB6 / Fold change vs veh, DNAJB6 / RFU, CACNA2D3 / Fold change vs veh, CACNA2D3 / RFU, DTX4 / Fold change vs veh, DTX4 / RFU, TFCP2 / Fold change vs veh, TFCP2 / RFU, GMCL1 /// GMCL1P1 / Fold change vs veh, GMCL1 /// GMCL1P1 / RFU, AEBP2 / Fold change vs veh, AEBP2 / RFU, SNHG1 /// SNORD22 /// SNORD25 /// SNORD26 /// SNORD27 /// SNORD28 /// SNORD29 /// SNORD31 / Fold change vs veh, SNHG1 /// SNORD22 /// SNORD25 /// SNORD26 /// SNORD27 /// SNORD28 /// SNORD29 /// SNORD31 / Fold change (Aza/veh), C12orf56 (ProbeSet 11735607_a_at) / Fold change (ACY-1035/veh), C12orf56 (ProbeSet 11735607_a_at) / Fold change (Aza/veh), FGFR1OP (ProbeSet 11751329_s_at) / Fold change (ACY-1035/veh), FGFR1OP (ProbeSet 11751329_s_at) / Fold change (Aza/veh), VPS36 (ProbeSet 11739960_a_at) / Fold change (ACY-1035/veh), VPS36 (ProbeSet 11739960_a_at) / RFU SYPL1 (11715823_x_at) / Fold change /veh SYPL1 (11715823_x_at) / RFU IGFBP7 (11715501_s_at) / Fold change /veh IGFBP7 (11715501_s_at) / RFU REEP3 (11722064_at) / Fold change /veh REEP3 (11722064_at) / RFU IGLL1 (11728026_x_at) / Fold change /veh IGLL1 (11728026_x_at): dose or concentration left out as unconfirmed
Settings: MV-4-11 cells, 48 hours

## Nc1ccc(-c2cccs2)cc1NC(=O)c1ccc2c(c1)cc(C1CC1)n2CCN1CCOCC1 [ACY-1035]
  Fold change /veh ACY1 (11761880_at): 1.19
